Reference: patent US8975417B2, “Pyrazolopyrrolidine derivatives and their use in the treatment of disease” (Novartis AG, priority 2013, dated 2015)

Key:
His-Brd4(44-477) = His-Brd4(44-477) (Homo sapiens (Human), UniProt O60885); test: TR-FRET in-vitro binding assay for BRD4; conditions: biochemical
In short: (§1)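 Assay buffer HEPES pH 7.5/NaCl/Tween20/BSA; protein solution 45 nM, peptide solution 60 nM acetyl-H4 (AcK5,8,12,16). Incubated 30 °C for 35 min; Eu-anti-His6 and SA-APC detection, TR-FRET read.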

His-Brd2(60-472) = His-Brd2(60-472) (Homo sapiens (Human), UniProt P25440); test: TR-FRET in-vitro binding assay for BRD2; conditions: biochemical
In short: as §1

THP-1 cells = test: Cell growth inhibition assay (CellTiter-Glo), THP-1; format: cell-based; conditions: Homo sapiens, read-out: THP-1 TGI
Procedure: (§2) Cell Growth Inhibition Assay
(§3) The human leukemia cell lines MV-4-11, THP-1 and K-562 were employed to characterize the effect of BET inhibitors on cellular proliferation and viability. Cells were obtained from the American Type Culture Collection (ATCC) and cultured at 37° C. in a humidified 5% CO2 incubator in the following media: MV-4-11: DMEM high glucose (Animed #1-26F01-I), 10% FCS (Animed #2-01F26-I), 4 mM L-Glutamine (Animed #5-10K50), 1 mM Sodium Pyruvate (Animed # G03625P), 1× Penicillin-Streptomycin (Animed # F12478P); K-562: Iscove's MEM (Animed #1-28F16-I), 10% FCS (Animed #2-01F26-I), 4 mM L-Glutamine (Animed #5-10K50), 1× Penicillin-Streptomycin (Animed # F12478P); THP-1: RPMI-1640 (Animed #1-41F01-I), 10% FCS (Animed #2-01F26-I), 2 mM L-Glutamine (Animed #5-10K50), 10 mM HEPES (Animed #5-31F100), 1 mM Sodium Pyruvate (Animed # G03625P), 1× Penicillin-Streptomycin (Animed # F12478P). The AML lines MV-4-11 and THP-1 are very sensitive to BET inhibitors and show massive cell death upon BET inhibition (Zuber et al., Nature, 478 (2011), 524-8). Compound-mediated suppression of cell proliferation/viability was assessed by quantification of cellular ATP levels using the CellTiter-Glo (CTG) reagent (Promega). Briefly, cells were seeded in 20 μl fresh medium into 384-well plates, followed by addition of 5 μL medium containing compound dilutions at 5-fold their final intended concentration. Dose-response effects were assessed by 3-fold serial dilutions of the test compound, starting at 10 μM. Following incubation of the cells for days at 37° C. and 5% CO2, the effect of inhibitors on cell viability was quantified following addition of 20 μl CTG and luminescence quantification (integration time: 100 ms) as per vendor manual, using a correspondingly equipped Tecan M200 multi-mode platereader (TECAN, Switzerland). For data analysis, the assay background value determined in wells containing medium, but no cells, was subtracted from all data points. To enable differentiation of cytotoxic from cytostatic compounds, the number of viable cells is assessed relative to that observed at the time of compound addition using a separate cell plate (day 0). The effect of a particular test compound concentration on cell proliferation/viability is expressed as percentage of the background- and day 0-corrected luminescence reading obtained for cells treated with vehicle only (DMSO, 0.1% final concentration), which is set as 100%, whereas that luminescence reading for wells containing medium is set as −100%. Compound concentrations leading to half-maximal (IC50) and total growth inhibition (TGI) were determined using standard four parameter curve fitting.

[1] = biological target: His-CREBBP (1081-1197) bromodomain (Homo sapiens (Human), UniProt Q92793); test: AlphaScreen in-vitro binding assay for CREBBP; conditions: biochemical
In short: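 Ni-chelate acceptor and streptavidin donor beads (45 µg/mL each, in 50 mM HEPES pH 7.5, 150 mM NaCl, 0.02% BSA) were then added for 60 min at room temperature. IC50 came from 8-point non-linear regression.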

His-Brd3(20-477) = His-Brd3(20-477) (Homo sapiens (Human), UniProt Q15059); test: TR-FRET in-vitro binding assay for BRD3; conditions: biochemical
In short: as §1

K-562 cells = test: Cell growth inhibition assay (CellTiter-Glo), K-562; format: cell-based, human; conditions: Homo sapiens, K562, read-out: K-562 TGI
Procedure: as §2, §3

MV-4-11 cells = test: Cell growth inhibition assay (CellTiter-Glo), MV-4-11; format: cell-based; conditions: Homo sapiens, MV4-11, read-out: MV-4-11 TGI
Procedure: as §2, §3

His-Brd2(60-472), sequence (P25440 60-472): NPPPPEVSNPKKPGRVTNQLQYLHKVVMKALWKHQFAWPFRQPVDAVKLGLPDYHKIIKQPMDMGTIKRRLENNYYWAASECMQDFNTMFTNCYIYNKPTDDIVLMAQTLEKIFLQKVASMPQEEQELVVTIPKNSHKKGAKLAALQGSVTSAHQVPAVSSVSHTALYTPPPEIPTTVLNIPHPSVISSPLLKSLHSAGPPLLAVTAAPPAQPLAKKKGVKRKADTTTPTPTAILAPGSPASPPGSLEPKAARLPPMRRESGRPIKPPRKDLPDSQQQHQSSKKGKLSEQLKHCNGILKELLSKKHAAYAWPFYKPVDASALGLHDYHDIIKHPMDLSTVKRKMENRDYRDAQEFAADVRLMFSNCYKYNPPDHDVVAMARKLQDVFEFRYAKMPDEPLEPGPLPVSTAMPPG
His-CREBBP (1081-1197) bromodomain, sequence (Q92793 1081-1197): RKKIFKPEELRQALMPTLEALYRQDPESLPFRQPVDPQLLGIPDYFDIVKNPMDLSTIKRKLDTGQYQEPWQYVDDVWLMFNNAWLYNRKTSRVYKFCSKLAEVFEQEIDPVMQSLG
His-Brd3(20-477), sequence (Q15059 20-477): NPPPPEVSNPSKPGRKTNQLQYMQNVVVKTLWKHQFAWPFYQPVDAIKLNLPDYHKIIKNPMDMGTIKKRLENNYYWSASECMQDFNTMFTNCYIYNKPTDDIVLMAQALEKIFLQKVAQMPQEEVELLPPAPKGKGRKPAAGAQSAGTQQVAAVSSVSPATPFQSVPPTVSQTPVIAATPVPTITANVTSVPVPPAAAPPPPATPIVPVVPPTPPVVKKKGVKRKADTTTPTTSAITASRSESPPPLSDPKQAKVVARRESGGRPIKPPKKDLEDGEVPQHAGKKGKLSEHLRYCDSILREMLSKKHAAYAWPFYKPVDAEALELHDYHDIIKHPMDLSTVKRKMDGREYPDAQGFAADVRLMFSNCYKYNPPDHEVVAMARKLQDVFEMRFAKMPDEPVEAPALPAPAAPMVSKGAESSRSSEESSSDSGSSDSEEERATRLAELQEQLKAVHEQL

| IC50 (His-Brd4(44-477)) [nM] | IC50 (His-Brd2(60-472)) [nM] | IC50 [1] [nM] | IC50 (His-Brd3(20-477)) [nM] | Structure (SMILES) | IC (total growth inhibition) (THP-1 cells) [µM] | IC (total growth inhibition) (K-562 cells) [µM] | IC (total growth inhibition) (MV-4-11 cells) [µM] |
| --- | --- | --- | --- | --- | --- | --- | --- |
| 95 | 310 | 3800 | 180 | Cc1[nH]nc2c1C(c1ccc(Cl)cc1)N(c1cc(C)c(=O)n(C)c1)C2=O (stereo not shown) [Example 27, 4-(4-chlorophenyl)-5-(1,5-dimethyl-6-oxo-1,6-dihydropyridin-3-yl)-3-methyl-4,5-dihydropyrrolo[3,4-c]pyrazol-6(2H)-one] | 0.363 | > 10 | 0.158 |
| 150 | 140 | 7400 | 160 | Cn1cc(N2C(=O)c3c(cnn3C3CC3)C2c2ccc(Cl)cc2)cc(Cl)c1=O (stereo not shown) [Example 35, 5-(5-chloro-1-methyl-6-oxo-1,6-dihydropyridin-3-yl)-4-(4-chlorophenyl)-1-cyclopropyl-4,5-dihydropyrrolo[3,4-c]pyrazol-6(1H)-one] | 0.427 | > 10 | 0.23 |
| 66 | 57 | 3600 | 59 | Cc1cc(N2C(=O)c3c(cnn3C(C)C)C2c2ccc(Cl)cc2)cn(C)c1=O (stereo not shown) [Example 36, 4-(4-chlorophenyl)-5-(1,5-dimethyl-6-oxo-1,6-dihydropyridin-3-yl)-1-isopropyl-4,5-dihydropyrrolo[3,4-c]pyrazol-6(1H)-one] | 0.191 | > 10 | 0.0927 |
| 130 | 98 | – | 120 | COc1ncc(-n2nc(C)c3c2C(=O)N(c2cc(Cl)c(=O)n(C)c2)C3c2ccc(Cl)cc2)c(OC)n1 (stereo not shown) [Example 53, 5-(5-chloro-1-methyl-6-oxo-1,6-dihydropyridin-3-yl)-4-(4-chlorophenyl)-1-(2,4-dimethoxypyrimidin-5-yl)-3-methyl-4,5-dihydropyrrolo[3,4-c]pyrazol-6(1H)-one] | 0.685 | > 10 | 0.372 |
| > 37000 | – | > 37000 | > 37000 | COc1ncc(-n2nc3c(c2C(C)C)[C@H](c2ccc(Cl)cc2)N(c2cc(C)c4onc(C)c4c2)C3=O)c(OC)n1 [Example 61, (S)-4-(4-chlorophenyl)-2-(2,4-dimethoxypyrimidin-5-yl)-5-(3,7-dimethylbenzo[d]isoxazol-5-yl)-3-isopropyl-4,5-dihydropyrrolo[3,4-c]pyrazol-6(2H)-one] | > 10 | > 10 | 1.09 |
| – | – | 14900 | 27 | Cc1nn(C2CC2)c2c1C(c1ccc(Cl)cc1)N(c1cc(C)c3nnc(C)n3c1)C2=O (stereo not shown) [Example 92, 4-(4-chlorophenyl)-1-cyclopropyl-5-(3,8-dimethyl-[1,2,4]triazolo[4,3-a]pyridin-6-yl)-3-methyl-4,5-dihydropyrrolo[3,4-c]pyrazol-6(1H)-one] | 0.0395 | > 10 | 0.0175 |
| – | – | 8900 | 17 | Cc1nn(C2CC2)c2c1[C@@H](c1ccc(Cl)cc1)N(c1cc(C)c3nnc(C)n3c1)C2=O [Example 119, (R)-4-(4-chlorophenyl)-1-cyclopropyl-5-(3,8-dimethyl-[1,2,4]triazolo[4,3-a]pyridin-6-yl)-3-methyl-4,5-dihydropyrrolo[3,4-c]pyrazol-6(1H)-one] | 0.0226 | > 10 | 0.0116 |
| 46 | – | 6600 | 50 | Cc1cc(N2C(=O)c3c(c(CF)nn3C3CC3)C2c2ccc(Cl)cc2)cn2c(C)nnc12 (stereo not shown) [Example 159, 4-(4-chlorophenyl)-1-cyclopropyl-5-(3,8-dimethyl-[1,2,4]triazolo[4,3-a]pyridin-6-yl)-3-(fluoromethyl)-4,5-dihydropyrrolo[3,4-c]pyrazol-6(1H)-one] | 0.0855 | > 10 | 0.0812 |
| 30 | – | 4400 | 52 | Cc1nn(C2CC2)c2c1C(c1ccc(Cl)cc1)N(c1cn(C)c(=O)c3[nH]ccc13)C2=O (stereo not shown) [Example 160, 4-(4-(4-chlorophenyl)-1-cyclopropyl-3-methyl-6-oxopyrrolo[3,4-c]pyrazol-5(1H,4H,6H)-yl)-6-methyl-1H-pyrrolo[2,3-c]pyridin-7(6H)-one] | 0.107 | > 10 | 0.102 |
| < 11 | – | 11000 | – | COCc1nn(C2CC2)c2c1[C@@H](c1ccc(Cl)cc1)N(c1cc(C)c3nnc(C)n3c1)C2=O [Example 163, […]] | 0.0461 | > 10 | 0.022 |
| – | – | 5100 | – | Cc1cc(N2C(=O)c3c(c(C4CC4)nn3C)[C@H]2c2ccc(Cl)cc2)cn2c(C)nnc12 [Example 164, (R)-4-(4-chlorophenyl)-3-cyclopropyl-5-(3,8-dimethyl-[1,2,4]triazolo[4,3-a]pyridin-6-yl)-1-methyl-4,5-dihydropyrrolo[3,4-c]pyrazol-6(1H)-one] | 0.0173 | > 10 | 0.0118 |
| 16 | – | 11000 | 30 | COc1ccccc1-n1nc(C)c2c1C(=O)N(c1cc(C)c3nnc(C)n3c1)C2c1ccc(F)cc1F (stereo not shown) [Example 177, 4-(2,4-difluorophenyl)-5-(3,8-dimethyl-[1,2,4]triazolo[4,3-a]pyridin-6-yl)-1-(2-methoxyphenyl)-3-methyl-4,5-dihydropyrrolo[3,4-c]pyrazol-6(1H)-one] | 0.153 | > 10 | 0.114 |
| 82 | – | > 24000 | 75 | Cc1n[nH]c2c1C(c1ccc(Cl)cc1F)N(c1cc(C)c3nnc(C)n3c1)C2=O (stereo not shown) [Example 183, 4-(4-chloro-2-fluorophenyl)-5-(3,8-dimethyl-[1,2,4]triazolo[4,3-a]pyridin-6-yl)-3-methyl-4,5-dihydropyrrolo[3,4-c]pyrazol-6(2H)-one] | 0.314 | > 10 | 0.126 |
| 27 | – | 33000 | 42 | COc1ccccc1-n1nc(C)c2c1C(=O)N(c1cc(C)c3nnc(C)n3c1)C2c1ccc(Cl)cc1F (stereo not shown) [Example 187, 4-(4-chloro-2-fluorophenyl)-5-(3,8-dimethyl-[1,2,4]triazolo[4,3-a]pyridin-6-yl)-1-(2-methoxyphenyl)-3-methyl-4,5-dihydropyrrolo[3,4-c]pyrazol-6(1H)-one] | 0.223 | > 10 | 0.209 |
